From patent US5710154A, “Tetrahydrofuran antifungals” (Schering Corporation, priority 1995, dated 1998)

Assays:
[1] = Serum levels following oral dosing, rats; format: in vivo; conditions: methyl cellulose formulation, compared to azoles of similar structure
[2] = Serum levels following oral dosing, dogs; format: in vivo; conditions: methyl cellulose formulation, compared to azoles of similar structure
[3] = Serum levels following oral dosing, mice; format: in vivo; conditions: methyl cellulose formulation, compared to azoles of similar structure
[4] = Serum half life and tissue distribution following O.D. dosing; format: in vivo, mice, rats, dogs and monkeys
[5] = Serum levels following oral dosing, monkeys; format: in vivo; conditions: methyl cellulose formulation, compared to azoles of similar structure
Candida albicans = assay: In vitro antifungal activity, broth dilution (MIC/MFC), Candida albicans; format: cell-based; conditions: 26 strains
Description: (§1) The in vitro antifungal activity tests were performed via conventional broth dilution methods in Sabouraud dextrose broth ("SDB") medium and Eagles Minimum Essential Medium ("EMEM") against a large number of fungi. Minimum Inhibitory Concentrations ("MICs") were measured after 24, 48 and 72 hour tests. In many cases, Minimum Fungicidial Concentrations ("MFCS") were measured after 48 and 72 hours.

Aspergillus = assay: In vitro antifungal activity, broth dilution (MIC/MFC), Aspergillus; format: cell-based, Aspergillus (flavus, fumigatus and other species); conditions: 37 strains
Description: as §1

Candida krusei = assay: In vitro antifungal activity, broth dilution (MIC/MFC), Candida krusei; format: cell-based; conditions: 16 strains
Description: as §1

Dermatophytes = assay: In vitro antifungal activity, broth dilution (MIC/MFC), dermatophytes; format: cell-based, T. rubrum, T. mentagrophytes, and T. tonsurans; conditions: 6 strains
Cryptococcus neoformans = assay: In vitro antifungal activity, broth dilution (MIC/MFC), Cryptococcus neoformans; format: cell-based; conditions: 3 strains
Description: as §1

[6] = test system: Candida tropicalis & stellatoidea; assay: In vitro antifungal activity, broth dilution (MIC/MFC), Candida tropicalis & stellatoidea; format: cell-based; conditions: 5 strains
Description: as §1

Candida glabrata = assay: In vitro antifungal activity, broth dilution (MIC/MFC), Candida glabrata; format: cell-based; conditions: 9 strains
Description: as §1

Structure (SMILES) | Percentage of strains with MFCs ≤1 mcg/ml (Candida albicans) [%] | Percentage of strains with MFCs ≤1 mcg/ml (Aspergillus) [%] | Percentage of strains with MFCs ≤1 mcg/ml (Candida krusei) [%] | Percentage of strains with MFCs ≤1 mcg/ml (Dermatophytes) [%] | Percentage of strains with MFCs ≤1 mcg/ml (Cryptococcus neoformans) [%] | Percentage of strains with MFCs ≤1 mcg/ml [6] [%] | Percentage of strains with MFCs ≤1 mcg/ml (Candida glabrata) [%] | MIC 90 (Minimum Inhibitory Concentrations for 90% of the strains) (Candida krusei) | MIC 90 (Minimum Inhibitory Concentrations for 90% of the strains) (Dermatophytes) | MIC 90 (Minimum Inhibitory Concentrations for 90% of the strains) [6] | also measured
CCC(C(C)O)n1ncn(-c2ccc(N3CCN(c4ccc(OCC5COC(Cn6cncn6)(c6ccc(F)cc6F)C5)cc4)CC3)cc2)c1=O (stereo not drawn) [drawing 21] |  |  |  |  |  |  |  |  |  |  | serum levels [1]: consistently higher serum levels; serum levels [2]: consistently higher serum levels; serum levels [3]: consistently higher serum levels; tissue distribution [4]: good tissue distribution; serum levels [5]: consistently higher serum levels
CCC(C(C)O)n1ncn(-c2ccc(N3CCN(c4ccc(OCC5COC(Cn6cncn6)(c6ccc(F)cc6F)C5)cc4)CC3)cc2)c1=O (stereo not drawn) [drawing 26] | 100 | 50 | 88 | 67 | 100 | 100 | 22 |  |  |  | 
CCC(C(C)O)n1ncn(-c2ccc(N3CCN(c4ccc(OCC5COC(Cn6cncn6)(c6ccc(F)cc6F)C5)cc4)CC3)cc2)c1=O (stereo not drawn) [drawing 27] | 100 | 62 | 94 | 83 | 100 | 100 | 22 |  |  |  | 
CCC(C(C)O)n1ncn(-c2ccc(N3CCN(c4ccc(OCC5COC(Cn6cncn6)(c6ccc(F)cc6F)C5)cc4)CC3)cc2)c1=O (stereo not drawn) [drawing 28] | 100 | 89 | 100 | 100 | 100 | 100 | 22 |  |  |  | 
CCC(C(C)O)n1ncn(-c2ccc(N3CCN(c4ccc(OCC5COC(Cn6cncn6)(c6ccc(F)cc6F)C5)cc4)CC3)cc2)c1=O (stereo not drawn) [drawing 30] |  |  |  |  |  |  |  | .058 MCG/ML | .165 MCG/ML | .117 MCG/ML | MIC 90 (Minimum Inhibitory Concentrations for 90% of the strains) (Cryptococcus neoformans): .05 MCG/ML
CCC(C(C)O)n1ncn(-c2ccc(N3CCN(c4ccc(OCC5COC(Cn6cncn6)(c6ccc(F)cc6F)C5)cc4)CC3)cc2)c1=O (stereo not drawn) [drawing 31] |  |  |  |  |  |  |  | .014 MCG/ML | .101 MCG/ML | .117 MCG/ML | MIC 90 (Minimum Inhibitory Concentrations for 90% of the strains) (Candida albicans): .174 MCG/ML; MIC 90 (Minimum Inhibitory Concentrations for 90% of the strains) (Aspergillus): .096 MCG/ML; MIC 90 (Minimum Inhibitory Concentrations for 90% of the strains) (Cryptococcus neoformans): .007 MCG/ML; MIC 90 (Minimum Inhibitory Concentrations for 90% of the strains) (Candida glabrata): 17.1 MCG/ML
CCC(C(C)O)n1ncn(-c2ccc(N3CCN(c4ccc(OCC5COC(Cn6cncn6)(c6ccc(F)cc6F)C5)cc4)CC3)cc2)c1=O (stereo not drawn) [drawing 32] |  |  |  |  |  |  |  | .12 MCG/ML | .707 MCG/ML | .354 MCG/ML | MIC 90 (Minimum Inhibitory Concentrations for 90% of the strains) (Candida albicans): .139 MCG/ML; MIC 90 (Minimum Inhibitory Concentrations for 90% of the strains) (Aspergillus): .112 MCG/ML; MIC 90 (Minimum Inhibitory Concentrations for 90% of the strains) (Candida glabrata): 28.8 MCG/ML
OC(Cn1cncn1)(Cn1cncn1)c1ccc(F)cc1F [fluconazole, reference compound] | 100 | 0 | 0 | 0 | 0 | 100 | 0 |  |  |  | Percentage of strains with MICs ≤1 mcg/ml (Candida albicans): 100%; Percentage of strains with MICs ≤1 mcg/ml (Aspergillus): 0%; Percentage of strains with MICs ≤1 mcg/ml (Candida krusei): 0%; Percentage of strains with MICs ≤1 mcg/ml (Dermatophytes): 100%; Percentage of strains with MICs ≤1 mcg/ml (Cryptococcus neoformans): 0%; Percentage of strains with MICs ≤1 mcg/ml [6]: 100%; Percentage of strains with MICs ≤1 mcg/ml (Candida glabrata): 0%
